In US12642791B2, “Inhibitors of lysyl oxidases” (UNIVERSITY OF SOUTH CAROLINA, priority 2021, dated 2026):

Assays:
breast cancer models = settings: daily by oral gavage, 70 mg/kg; cited from earlier work
LOXL3 = LOXL3 (Homo sapiens, UniProt P58215); settings: cited from earlier work
LOXL2 [1] = molecular target: T1, LOXL2 (Homo sapiens, UniProt Q9Y4K0); settings: cited from earlier work
T1 sequence (Q9Y4K0 26-774): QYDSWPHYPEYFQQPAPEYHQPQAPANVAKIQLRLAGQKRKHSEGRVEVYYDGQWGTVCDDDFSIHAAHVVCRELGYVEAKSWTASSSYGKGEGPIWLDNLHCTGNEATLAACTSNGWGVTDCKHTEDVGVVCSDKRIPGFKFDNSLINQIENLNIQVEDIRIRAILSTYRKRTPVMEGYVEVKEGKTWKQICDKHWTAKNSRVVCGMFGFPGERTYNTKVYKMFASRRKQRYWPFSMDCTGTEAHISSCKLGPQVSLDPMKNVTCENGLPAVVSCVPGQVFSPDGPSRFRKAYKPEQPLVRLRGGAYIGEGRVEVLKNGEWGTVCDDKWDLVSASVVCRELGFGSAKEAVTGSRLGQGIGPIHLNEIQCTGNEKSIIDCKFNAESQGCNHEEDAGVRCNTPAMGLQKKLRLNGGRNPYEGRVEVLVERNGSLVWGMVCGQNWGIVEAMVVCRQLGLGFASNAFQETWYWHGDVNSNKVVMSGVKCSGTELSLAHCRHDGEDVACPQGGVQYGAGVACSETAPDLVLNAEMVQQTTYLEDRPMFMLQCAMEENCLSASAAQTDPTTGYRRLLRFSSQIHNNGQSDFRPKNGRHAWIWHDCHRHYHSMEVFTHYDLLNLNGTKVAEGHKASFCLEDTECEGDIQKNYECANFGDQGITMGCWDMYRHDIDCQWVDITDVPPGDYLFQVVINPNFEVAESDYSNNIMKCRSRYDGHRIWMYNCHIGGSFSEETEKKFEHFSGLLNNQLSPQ

[2] = tested on: LOXL2-mediated collagen oxidation and cross-linking; settings: in vitro; cited from earlier work
[3] = human, in vivo; cited from earlier work
[4] = tested on: kidney fibrosis, lung fibrosis, myelofibrosis and pancreatic cancer models; settings: in vivo; cited from earlier work
HFF = assay: Viability assay in normal cells; assay type: cell-based; settings: human foreskin fibroblast cell line
Source text: (§1) FIG. 32. 6232 derivatives, 6403 and 6415, show no cytotoxicity in normal cells. Viability assay in normal breast cell line, MCF12A, human foreskin fibroblast cell line, HFF and human endothelial cell line, HUVEC treated with 6403 or 6415.

HUVEC = assay: Viability assay in normal cells; assay type: cell-based; settings: human endothelial cell line
Source text: as §1

[5] = tested on: MDA-MB-231 cells embedded in collagen I; assay: ECM crosslinking by collagen and fibronectin immunofluorescence staining; assay type: cell-based, human
Experimental: FIG. 31. […] A. Inhibition of LOX activity in MDA-MB-231 cells treated with 5 μM of the LOX inhibitors. B. Doxorubicin sensitization with 6232 and its analogs, 6403 and 6415, in 3D collagen-I culture. C. Collagen and fibronectin staining of vehicle or 6232 or 6403 or 6415-treated MDA-MB-231 cells embedded in collagen I. BAPN is used as a positive control.
Immunofluorescence staining of cells was done in μ-Slide 8-well glass bottom chambers (Ibidi, Germany). Cells were fixed with 4% paraformaldehyde for 20 min, permeabilized with 0.5% Triton X-100 for 10 min and blocked in 5% BSA-PBS. Samples were incubated with primary (Collagen I, Fibronectin, F-actin, a-SMA) and secondary Alexa Fluor 647 or 488-labeled antibodies for 1.5 hours at room temperature. Cells were also counterstained with DAPI for 5 min. Images were acquired using ZEN 2012 SP5 (Black) LSM 700 (Carl Zeiss, DE).

MCF12A = assay: Viability assay in normal cells; assay type: cell-based, human; settings: normal breast cell line
Source text: as §1

[6] = tested on: cellular lysyl oxidase (LOX) activity, MDA-MB-231 cells; assay: Cell-based lysyl oxidase activity assay (Abcam kit); set-up: species or system human; settings: read-out: cellular LOX activity
Source text: As the available LOX inhibitors are either not very potent or have toxicity, the inventors developed a robust screening pipeline shown in FIG. 28 to identify potent and safe LOX-specific and pan-LOX inhibitors. Briefly, a high-throughput cell-based LOX activity (Abcam) screen (HTS) was done for more than 5,000 drug-like compounds from the EXPRESS-Pick diversified library (4,480 molecules, ChemBridge) and Tocriscreen library of bioactive compounds (1,280 compounds, Tocris), each at a single concentration of 10 μM. […] The toxic molecules were counter screened with cell cytotoxicity assay and filtered out.
FIGS. 34. […] IC50 for cellular lysyl oxidase activity upon treatment of MDA-MB-231 cells with different LOX inhibitors. uM=microM.
For cell-based lysyl oxidase activity, fluorometric Lysly Oxidase Activity Assay Kit (Abcam, USA) was used according to manufacturer's instructions. Briefly, after the treatment, 50 μl of supernatant from each well was incubated with reagent mix and fluorescence measured in multimode-reader at Ex/Em=540/590 nm wavelength.

LOXL2 [7] = molecular target: T1, LOXL2; set-up: Simtuzumab only targets extracellular LOXL2; host or cells: pancreatic cancer patients; settings: in combination with gemcitabine; cited from earlier work

Sequence of LOXL3 (P58215 26-753, species assumed): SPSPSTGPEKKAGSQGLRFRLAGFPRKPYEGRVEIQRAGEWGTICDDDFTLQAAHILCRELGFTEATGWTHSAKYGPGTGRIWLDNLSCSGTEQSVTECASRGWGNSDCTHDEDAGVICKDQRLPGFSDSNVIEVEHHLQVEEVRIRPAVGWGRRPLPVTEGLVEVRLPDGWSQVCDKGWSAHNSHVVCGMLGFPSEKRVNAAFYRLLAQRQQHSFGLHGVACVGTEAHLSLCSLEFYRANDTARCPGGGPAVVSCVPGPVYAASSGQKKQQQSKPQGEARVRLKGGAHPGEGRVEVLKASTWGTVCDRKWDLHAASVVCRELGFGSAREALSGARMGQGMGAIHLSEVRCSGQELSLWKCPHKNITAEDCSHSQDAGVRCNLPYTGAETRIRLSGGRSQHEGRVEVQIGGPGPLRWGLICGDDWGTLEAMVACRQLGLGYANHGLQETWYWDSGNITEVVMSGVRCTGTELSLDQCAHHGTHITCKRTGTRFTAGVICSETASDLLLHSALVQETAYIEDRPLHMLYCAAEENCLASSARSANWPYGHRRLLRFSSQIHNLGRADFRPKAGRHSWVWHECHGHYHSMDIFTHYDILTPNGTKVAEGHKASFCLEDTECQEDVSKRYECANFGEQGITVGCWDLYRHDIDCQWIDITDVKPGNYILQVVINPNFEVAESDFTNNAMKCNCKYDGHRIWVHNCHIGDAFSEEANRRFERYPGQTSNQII

CS(=O)(=O)c1cc(-c2ccccc2)cc(S(=O)(=O)c2ccc(CN)s2)c1 [CCT365623]
metastasis (breast cancer models): reduced metastasis
tumor growth (breast cancer models): decreased tumor growth

Cc1c(-c2cccc(S(=O)(=O)N(C)C)c2)c2ncccc2n1C/C(F)=C/CN.Cl.Cl [PXS-5153A]
enzyme inhibition (LOXL3): complete and irreversible enzyme inhibition
enzyme inhibition (LOXL2 [1]): complete and irreversible enzyme inhibition
LOXL2-mediated collagen oxidation and cross-linking [2]: reduce LOXL2-mediated collagen oxidation and cross-linking, in a dose-dependent manner

NC/C=C(\F)CS(=O)(=O)c1cccc2cccnc12 [PXS-5505]
tolerability [3]: well tolerated
fibrosis [4]: significant reductions in fibrosis

Cc1nc(N)sc1-c1csc(Nc2ccc(S(N)(=O)=O)cc2)n1 [compound 6405, 4-((2′-amino-4′-methyl-[4,5′-bithiazol]-2-yl)amino)benzenesulfonamide]
cell viability (cytotoxicity in normal cells) (HFF): No significant effect on the viability
cell viability (cytotoxicity in normal cells) (HUVEC): No significant effect on the viability
ECM crosslinking (collagen and fibronectin staining) [5]: decrease in ECM crosslinking
cell viability (cytotoxicity in normal cells) (MCF12A): No significant effect on the viability

COCCC(=O)Nc1ccc(Nc2nc(-c3sc(N)nc3C)cs2)cc1 [compound 6425, N-[4-[[4-(2-amino-4-methyl-thiazol-5-yl)thiazol-2-yl]amino]phenyl]-3-methoxy-propanamide]
IC50 [6]: 7.5 µM

CCCCC(=O)Nc1ccc(Nc2nc(-c3sc(N)nc3C)cs2)cc1 [compound 6426, N-[4-[[4-(2-amino-4-methyl-thiazol-5-yl)thiazol-2-yl]amino]phenyl]pentanamide]
IC50 [6]: 2 µM

B1: Simtuzumab: non-competitive LOXL2 targeting humanized monoclonal antibody (antibody, chains of the INN, looked up, V domains shown)
VH: QVQLVQSGAEVKKPGASVKVSCKASGYAFTYYLIEWVRQAPGQGLEWIGVINPGSGGTNYNEKFKGRATITADKSTSTAYMELSSLRSEDTAVYFCARNWMNFDYWGQGTTVTVSS
VL: DIVMTQTPLSLSVTPGQPASISCRSSKSLLHSNGNTYLYWFLQKPGQSPQFLIYRMSNLASGVPDRFSGSGSGTDFTLKISRVEAEDVGVYYCMQHLEYPYTFGGGTKVEIK
clinical benefit (LOXL2 [7]): minimal
tolerability (LOXL2 [7]): well-tolerated
